Results from US11912682B2, “Isoindolinone compounds” (Monte Rosa Therapeutics, Inc., priority 2021, dated 2024).
Where two headings read alike, the source gives them in different places.

How the values were obtained:
[1] = molecular target: Full length wild-type cereblon CRBN (Homo sapiens (Human), UniProt Q96SW2); test: fluorescence polarization (FP) assay, cereblon binding
Excerpt: Compound activity was monitored in a fluorescence polarization (FP) homogeneous assay using 1-[5-({2-[2-(2-{[2-(2,6-dioxopiperidin-3-yl)-1,3-dioxo-2,3-dihydro-1H-isoindol-4-yl]oxy}acetamido)ethoxy]ethyl}carbamoyl)pentyl]-3,3-dimethyl-2-[(1E,3E)-5-[(2E)-1,3,3-trimethyl-5-sulfo-2,3-dihydro-1H-indol-2-ylidene]penta-1,3-dien-1-yl]-3H-indol-1-ium-5-sulfonate as a fluorescent probe. Unless otherwise stated, all reagents were purchased from Sigma Aldrich. […] Full length wild-type cereblon CRBN (80.0 nM, 10 μL) was incubated in assay buffer containing 20 mM HEPES (pH 8.0), […], 0.5 mM TCEP and 0.05% Tween 20 in the presence or absence of compound (300 nL). Inhibitors were stored as 10 mM DMSO stocks in an inert environment (low humidity, dark, low oxygen, room temperature) using the Storage Pod System. […] Following incubation at room temperature for 30 min, the assay was initiated by dispensing the probe to a final concentration of 5 nM (2.5 nL of a 20 μM stock) using the Echo ESXX. […] The FP signal was subsequently normalized to the no-compound control (i.e., DMSO). Analysis and IC50 values were derived using Dotmatics (Dotmatics UK) software.

[2] = molecular target: GSPT1 (Homo sapiens (Human), UniProt P15170+Q96SW2); test: immunofluorescence assay for GSPT1 degradation in CAL-51 cells (Example 4); assay type: cell-based
Chain of GSPT1 (P15170 whole entry): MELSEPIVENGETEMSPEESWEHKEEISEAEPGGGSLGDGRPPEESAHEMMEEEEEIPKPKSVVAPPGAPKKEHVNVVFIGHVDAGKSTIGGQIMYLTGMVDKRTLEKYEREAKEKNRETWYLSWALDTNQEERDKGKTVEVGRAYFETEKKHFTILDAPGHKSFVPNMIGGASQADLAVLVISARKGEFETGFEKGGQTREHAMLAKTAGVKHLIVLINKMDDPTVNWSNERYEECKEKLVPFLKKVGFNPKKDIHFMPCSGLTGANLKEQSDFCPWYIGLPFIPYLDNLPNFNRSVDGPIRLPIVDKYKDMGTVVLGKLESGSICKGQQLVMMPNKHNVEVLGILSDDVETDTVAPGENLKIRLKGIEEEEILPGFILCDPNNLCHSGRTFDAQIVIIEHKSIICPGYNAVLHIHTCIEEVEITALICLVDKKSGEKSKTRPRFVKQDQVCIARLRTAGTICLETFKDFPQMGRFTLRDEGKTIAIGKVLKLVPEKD
Chain of GSPT1 (Q96SW2 whole entry): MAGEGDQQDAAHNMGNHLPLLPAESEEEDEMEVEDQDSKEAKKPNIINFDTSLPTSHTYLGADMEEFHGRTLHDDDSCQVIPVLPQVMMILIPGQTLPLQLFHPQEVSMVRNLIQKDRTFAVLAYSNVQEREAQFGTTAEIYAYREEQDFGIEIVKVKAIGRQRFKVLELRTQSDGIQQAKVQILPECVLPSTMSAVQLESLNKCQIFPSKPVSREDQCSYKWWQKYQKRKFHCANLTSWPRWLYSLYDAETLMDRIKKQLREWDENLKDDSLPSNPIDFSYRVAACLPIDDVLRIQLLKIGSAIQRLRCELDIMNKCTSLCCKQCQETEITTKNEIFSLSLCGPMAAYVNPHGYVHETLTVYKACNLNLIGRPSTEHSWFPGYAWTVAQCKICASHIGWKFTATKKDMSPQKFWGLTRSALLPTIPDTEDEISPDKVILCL
Chain of GSPT1 (Q16531 2-1140 partner): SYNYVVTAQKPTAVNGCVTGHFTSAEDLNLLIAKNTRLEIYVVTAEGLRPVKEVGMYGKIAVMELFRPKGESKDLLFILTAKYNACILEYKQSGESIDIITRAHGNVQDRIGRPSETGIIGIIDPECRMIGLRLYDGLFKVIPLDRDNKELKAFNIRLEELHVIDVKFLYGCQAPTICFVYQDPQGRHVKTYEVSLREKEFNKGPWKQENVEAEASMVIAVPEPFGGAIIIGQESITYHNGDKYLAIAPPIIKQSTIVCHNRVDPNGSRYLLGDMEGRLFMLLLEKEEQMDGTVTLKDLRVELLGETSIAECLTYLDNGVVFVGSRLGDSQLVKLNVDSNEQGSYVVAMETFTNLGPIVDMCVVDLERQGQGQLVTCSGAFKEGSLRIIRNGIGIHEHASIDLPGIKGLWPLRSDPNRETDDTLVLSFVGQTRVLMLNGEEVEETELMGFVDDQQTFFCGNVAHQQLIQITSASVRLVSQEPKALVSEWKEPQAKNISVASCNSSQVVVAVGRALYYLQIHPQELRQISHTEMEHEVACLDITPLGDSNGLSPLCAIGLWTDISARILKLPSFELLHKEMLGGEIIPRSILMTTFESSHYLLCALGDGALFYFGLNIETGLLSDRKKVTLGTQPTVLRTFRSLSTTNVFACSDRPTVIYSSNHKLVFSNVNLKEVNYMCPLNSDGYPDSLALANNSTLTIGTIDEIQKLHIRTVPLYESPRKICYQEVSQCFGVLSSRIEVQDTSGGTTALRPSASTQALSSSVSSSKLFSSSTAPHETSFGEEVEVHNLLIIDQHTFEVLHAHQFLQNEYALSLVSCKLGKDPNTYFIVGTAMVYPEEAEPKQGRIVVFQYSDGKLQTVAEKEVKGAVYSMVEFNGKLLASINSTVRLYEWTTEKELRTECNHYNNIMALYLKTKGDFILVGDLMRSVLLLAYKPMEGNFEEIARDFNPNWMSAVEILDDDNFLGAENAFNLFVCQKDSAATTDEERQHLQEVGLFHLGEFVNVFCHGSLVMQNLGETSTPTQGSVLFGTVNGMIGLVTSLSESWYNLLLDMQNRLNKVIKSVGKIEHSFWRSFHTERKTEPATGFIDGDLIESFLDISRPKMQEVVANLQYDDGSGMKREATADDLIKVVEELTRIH
Method in brief: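 CAL-51 cells on fibronectin-coated plates were treated 6 h with serial dilutions (30 μM to 0.1 nM), then fixed and immunostained for GSPT1 with DAPI and phalloidin counterstains. Per-cell mean GSPT1 intensity from high-content imaging, normalized to controls; DC50 by non-linear regression.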

[3] = 6 hours, read-out: Activity for GSPT1 degradation, Code (DC50)
[4] = GSPT1 degradation, read-out: DC50 value

Chain of Full length wild-type cereblon CRBN (Q96SW2 whole entry): as the sequence (Q96SW2 whole entry) above

SMILES	IC50 ([1]; read-out: IC50 value) [nM]	DC50 [2, 3] [nM]	DC50 [2, 4] [nM]	IC50 ([1]; read-out: rFP IC50) [nM]	IC50 ([1]; IC50 value) [nM]	DC50 ([2]; read-out: Activity for GSPT1 degradation, Code (DC50), 6 hours) [nM]
COc1ccccc1-c1ccc(NC(=O)OCc2ccc3c(c2)C(=O)N(C2CCC(=O)NC2=O)C3)cn1 (centres unmarked) [Compound 87]	< 1100	< 30	≤ 30	–	–	–
O=C1CCC(N2Cc3ccc(COC(=O)Nc4cccc(OC5CC5)c4)cc3C2=O)C(=O)N1 (centres unmarked) [Compound 93]	< 1100	30 to 300	–	–	–	–
COc1ccccc1CNC(=O)OCc1ccc2c(c1)C(=O)N(C1CCC(=O)NC1=O)C2 (centres unmarked) [Compound 97]	< 1100	> 300	–	–	–	–
CC(NC(=O)OCc1ccc2c(c1)C(=O)N(C1CCC(=O)NC1=O)C2)c1ccccc1 (centres unmarked) [Compound 102]	< 1100	> 300	–	–	–	–
O=C1CCC(N2Cc3ccc(COC(=O)Nc4ccc(C5CCC5)nc4)cc3C2=O)C(=O)N1 (centres unmarked) [Compound 105]	< 1100	30 to 300	–	–	–	–
O=C1CCC(N2Cc3ccc(COC(=O)Nc4ccc(N5CCC5)nc4)cc3C2=O)C(=O)N1 (centres unmarked) [Compound 107]	–	> 300	–	< 500	–	–
Cc1cc(NC(=O)OCc2ccc3c(c2)C(=O)N(C2CCC(=O)NC2=O)C3)cc(C)c1C#N (centres unmarked) [Compound 108]	–	30 to 300	–	< 500	–	–
Cc1ccc(NC(=O)OCc2ccc3c(c2)C(=O)N(C2CCC(=O)NC2=O)C3)cc1C#N (centres unmarked) [Compound 110, (2-(2,6-dioxopiperidin-3-yl)-3-oxoisoindolin-5-yl)methyl(3-cyano-4-methylphenyl)carbamate]	< 500	–	≤ 30	< 500	< 1100	< 30
O=C1CCC(N2Cc3ccc(COC(=O)Nc4ccc5c(c4)CC(F)(F)O5)cc3C2=O)C(=O)N1 (centres unmarked) [Compound 113]	–	30 to 300	–	< 500	–	–
CC(C)(C)c1cc(NC(=O)OCc2ccc3c(c2)C(=O)N(C2CCC(=O)NC2=O)C3)ccn1 (centres unmarked) [Compound 114]	–	< 30	–	< 500	–	–
CC(OC(=O)Nc1cccc(OC(F)(F)F)c1)c1ccc2c(c1)C(=O)N(C1CCC(=O)NC1=O)C2 (centres unmarked) [Compound 121, 1-(2-(2,6-dioxopiperidin-3-yl)-3-oxoisoindolin-5-yl)ethyl(3-(trifluoromethoxy)phenyl)carbamate]	–	> 300	–	> 1700	–	–
O=C1CCC(N2Cc3ccc(COC(=O)Nc4cc(OC(F)(F)F)ccc4Cl)cc3C2=O)C(=O)N1 (centres unmarked) [Compound 125, (2-(2,6-dioxopiperidin-3-yl)-3-oxoisoindolin-5-yl)methyl(2-chloro-5-(trifluoromethoxy)phenyl)carbamate]	–	> 300	–	> 1700	–	–
O=C1CCC(N2Cc3ccc(COC(=O)NC45CC(c6ccccc6)(C4)C5)cc3C2=O)C(=O)N1 (centres unmarked) [Compound 126, (2-(2,6-dioxopiperidin-3-yl)-3-oxoisoindolin-5-yl)methyl (3-phenylbicyclo[1.1.1]pentan-1-yl carbamate]	–	< 30	≤ 30	< 500	–	–
Cc1ccc(NC(=O)OCc2ccc3c(c2)C(=O)N(C2CCC(=O)NC2=O)C3)cc1C (centres unmarked) [Compound 129]	–	30 to 300	–	< 500	–	–
O=C1CCC(N2Cc3ccc(COC(=O)Nc4cc(F)c(-c5ccccc5)c(F)c4)cc3C2=O)C(=O)N1 (centres unmarked) [Compound 134, (2-(2,6-dioxopiperidin-3-yl)-3-oxoisoindolin-5-yl)methyl(2,6-difluoro-[1,1′-biphenyl]-4-yl)carbamate]	–	30 to 300	–	> 1700	–	–
O=C1CCC(N2Cc3ccc(COC(=O)Nc4ccc(-c5ccccn5)cc4F)cc3C2=O)C(=O)N1 (centres unmarked) [Compound 135, (2-(2,6-dioxopiperidin-3-yl)-3-oxoisoindolin-5-yl)methyl (2-fluoro-4-(pyridin-2-yl)phenyl)carbamate]	–	< 30	≤ 30	< 500	–	–
Cc1cc(NC(=O)OCc2ccc3c(c2)C(=O)N(C2CCC(=O)NC2=O)C3)ccc1-c1ccccc1 (centres unmarked) [Compound 137, (2-(2,6-dioxopiperidin-3-yl)-3-oxoisoindolin-5-yl)methyl(2-methyl-[1,1′-biphenyl]-4-yl)carbamate]	–	< 30	≤ 30	> 1700	–	–
O=C1CCC(N2Cc3ccc(COC(=O)Nc4ccc(OC(F)(F)F)cc4F)cc3C2=O)C(=O)N1 (centres unmarked) [Compound 148, (2-(2,6-dioxopiperidin-3-yl)-3-oxoisoindolin-5-yl)methyl(2-fluoro-4-(trifluoromethoxy)phenyl)carbamate]	–	> 300	–	> 1700	–	–
O=C1CCC(N2Cc3ccc(COC(=O)Nc4ccnc(-c5ccccc5)c4)cc3C2=O)C(=O)N1 (centres unmarked) [Compound 149]	–	> 300	–	< 500	–	–
CC1(c2ccc(NC(=O)OCc3ccc4c(c3)C(=O)N(C3CCC(=O)NC3=O)C4)cn2)CC1 (centres unmarked) [Compound 152, (2-(2,6-dioxopiperidin-3-yl)-3-oxoisoindolin-5-yl)methyl (6-(1-methylcyclopropyl)pyridin-3-yl)carbamate]	–	< 30	≤ 30	< 500	–	–
O=C1CCC(N2Cc3ccc(COC(=O)Nc4ccc(OC(F)(F)F)cc4)cc3C2=O)C(=O)N1 (centres unmarked) [Compound 154, (2-(2,6-dioxopiperidin-3-yl)-3-oxoisoindolin-5-yl)methyl (4-(trifluoromethoxy)phenyl)carbamate]	–	30 to 300	–	> 1700	–	–

The next lines start with results.

IC50 ([1]; read-out: IC50 value) [nM]	DC50 [2, 3] [nM]	DC50 [2, 4] [nM]	IC50 ([1]; read-out: rFP IC50) [nM]	SMILES	IC50 ([1]; IC50 value) [nM]	DC50 ([2]; read-out: Activity for GSPT1 degradation, Code (DC50), 6 hours) [nM]
< 1100	< 30	≤ 30	–	Cc1cc(NC(=O)OCc2ccc3c(c2)C(=O)N(C2CCC(=O)NC2=O)C3)cnc1-c1ccccc1 (centres unmarked) [Compound 88]	–	–
< 1100	> 300	–	–	CN(C)C1CN(c2ccc(NC(=O)OCc3ccc4c(c3)C(=O)N(C3CCC(=O)NC3=O)C4)cn2)C1 (centres unmarked) [Compound 89]	–	–
< 1100	< 30	≤ 30	–	Cc1ncc(NC(=O)OCc2ccc3c(c2)C(=O)N(C2CCC(=O)NC2=O)C3)cc1OC(F)(F)F (centres unmarked) [Compound 91]	–	–
< 1100	< 30	≤ 30	–	O=C1CCC(N2Cc3ccc(COC(=O)Nc4ccc5c(c4)OCCC5)cc3C2=O)C(=O)N1 (centres unmarked) [Compound 92]	–	–
–	30 to 300	–	< 500	O=C1CCC(N2Cc3ccc(COC(=O)Nc4cnc(N5CCCCC5)cn4)cc3C2=O)C(=O)N1 (centres unmarked) [Compound 94]	–	–
< 1100	> 300	–	–	O=C1CCC(N2Cc3ccc(COC(=O)NCc4ccccc4)cc3C2=O)C(=O)N1 (centres unmarked) [Compound 98]	–	–
< 1100	30 to 300	–	–	O=C1CCC(N2Cc3ccc(COC(=O)Nc4cc(CN5CC6CC5CO6)cc(OC(F)F)c4)cc3C2=O)C(=O)N1 (centres unmarked) [Compound 100]	–	–
–	30 to 300	–	> 1700	O=C1CCC(N2Cc3ccc(COC(=O)Nc4ccc(C5CC5(F)F)cc4)cc3C2=O)C(=O)N1 (centres unmarked) [Compound 101]	–	–
< 1100	30 to 300	–	–	CC1COc2cc(NC(=O)OCc3ccc4c(c3)C(=O)N(C3CCC(=O)NC3=O)C4)ccc21 (centres unmarked) [Compound 103]	–	–
–	30 to 300	–	> 1700	O=C1CCC(N2Cc3ccc(COC(=O)Nc4ccc(C5CCC5)cc4)cc3C2=O)C(=O)N1 (centres unmarked) [Compound 104]	–	–
< 1100	30 to 300	–	–	O=C1CCC(N2Cc3ccc(COC(=O)Nc4cc(OCCN5CCOCC5)cc(OC(F)(F)F)c4)cc3C2=O)C(=O)N1 (centres unmarked) [Compound 106]	–	–
–	30 to 300	–	< 500	N#Cc1cc(Cl)cc(NC(=O)OCc2ccc3c(c2)C(=O)N(C2CCC(=O)NC2=O)C3)c1 (centres unmarked) [Compound 111, (2-(2,6-dioxopiperidin-3-yl)-3-oxoisoindolin-5-yl)methyl (3-chloro-5-cyanophenyl)carbamate]	–	–
–	30 to 300	–	< 500	Cc1cc(C#N)cc(NC(=O)OCc2ccc3c(c2)C(=O)N(C2CCC(=O)NC2=O)C3)c1 (centres unmarked) [Compound 112, (2-(2,6-dioxopiperidin-3-yl)-3-oxoisoindolin-5-yl)methyl (3-cyano-5-methylphenyl)carbamate]	–	–
–	30 to 300	–	> 1700	Cc1c(F)cc(NC(=O)OCc2ccc3c(c2)C(=O)N(C2CCC(=O)NC2=O)C3)cc1Cl (centres unmarked) [Compound 116]	–	–
–	30 to 300	–	< 500	Cc1cc(C)c(F)c(NC(=O)OCc2ccc3c(c2)C(=O)N(C2CCC(=O)NC2=O)C3)c1 (centres unmarked) [Compound 122, (2-(2,6-dioxopiperidin-3-yl)-3-oxoisoindolin-5-yl)methyl (2-fluoro-3,5-dimethylphenyl)carbamate]	–	–
–	30 to 300	–	< 500	Cc1cc(NC(=O)OCc2ccc3c(c2)C(=O)N(C2CCC(=O)NC2=O)C3)cc(C)c1F (centres unmarked) [Compound 124, (2-(2,6-dioxopiperidin-3-yl)-3-oxoisoindolin-5-yl)methyl (4-fluoro-3,5-dimethylphenyl)carbamate]	–	–
–	30 to 300	–	> 1700	O=C1CCC(N2Cc3ccc(COC(=O)Nc4ccc(-c5ccccc5)c(F)c4)cc3C2=O)C(=O)N1 (centres unmarked) [Compound 136, (2-(2,6-dioxopiperidin-3-yl)-3-oxoisoindolin-5-yl)methyl (2-fluoro-[1,1′-biphenyl]-4-yl) carbamate]	–	–
–	30 to 300	–	> 1700	O=C1CCC(N2Cc3ccc(COC(=O)Nc4ccc(-c5ccccc5)cn4)cc3C2=O)C(=O)N1 (centres unmarked) [Compound 143, (2-(2,6-dioxopiperidin-3-yl)-3-oxoisoindolin-5-yl)methyl (5-phenylpyridin-2-yl)carbamate]	–	–
